According to patent US9468624B2, “Small molecule antagonists of bacterial quorum-sensing receptors” (priority 2008, dated 2016):
Read-outs that look alike come from different tables or passages of the source.

What was measured:
[1] = system: CviR-dependent violacein production; experiment: Violacein production in wild type C. violaceum, dose-response; type: cell-based; conditions: Chromobacterium violaceum, read-out: IC50 for inhibition of violacein production
Experimental: (§1) E. coli strains were grown overnight in LB medium with antibiotics at 37° C. and sub-cultured into fresh medium at a 1:100 dilution. Various AHL and antagonists were added at constant concentrations or titrated as stated. The gfp was measured on an Envision plate reader after 5 hours of growth at 37° C. C. violaceum strains were grown aerobically in 1 mL Nutrient Broth plus 1 mM tryptophan at 30° C. […] Cells were collected via centrifugation at 13000 rpm for 15 minutes. Pellets were resuspended in 1 mL of methanol and incubated at 42° C. for 1 hour. Samples were again collected via centrifugation at 13000 rpm for 5 minutes and analyzed for violacein by measuring optical density at 568 nm on a Beckman Coulter DU-800 spectrophotometer. For the dose-response analyses, all assays were performed in triplicate.
To determine if 4606-4237 inhibits violacein production specifically by interfering with CviR, 4606-4237 was tested for antagonism of CviR in the recombinant E. coli vioA-gfp assay. For these experiments, C6-HSL was held constant at 500 nM, while 4606-4237 was titrated from 1.3 nM to 100 μM (FIG. 3D). This concentration of native C6-HSL signal induces maximal gfp production in this heterologous assay system. Importantly, no C. violaceum components other than CviR are present in the recombinant E. coli assay strain. Thus, any inhibition occurring would be due to a specific interaction between the antagonist molecule 4606-4237 and CviR rather than an interaction of 4606-4237 with some unknown component required for violacein production in C. violaceum. […] Thus, 4606-4237 functions by disabling CviR-mediated activation of gene expression in both the C. violaceum in vivo violacein assay and the recombinant E. coli vioA-gfp assay.

CviR [2] = molecular target: T1, CviR (Chromobacterium violaceum, UniProt D3W065); experiment: cell-based; type: cell-based; parameters: made in house; host or cells: E. coli BL21(DE3) pLysS, plasmid pET23b
T1 sequence (D3W065 1-265): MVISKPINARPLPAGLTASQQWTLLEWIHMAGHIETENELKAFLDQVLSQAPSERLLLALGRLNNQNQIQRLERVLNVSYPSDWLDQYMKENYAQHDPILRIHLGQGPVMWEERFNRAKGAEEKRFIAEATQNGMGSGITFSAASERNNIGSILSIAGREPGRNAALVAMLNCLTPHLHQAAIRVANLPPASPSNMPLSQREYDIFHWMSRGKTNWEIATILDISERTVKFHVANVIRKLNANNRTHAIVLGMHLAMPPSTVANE
Experimental: The vioA-gfp promoter fusion was constructed by amplifying the vioA promoter and cloning this region upstream of gfp in pEVS141 at the SphI and SalI sites. Cells containing the vioA-gfp construct were electroporated with the pET23 carrying cviR and selected on LB medium supplemented with 75 μg/mL ampicillin and 50 μg/mL kanamycin. The E. coli strain containing cviR and the vio:gfp reporter is named ELS1257.
as §1
However, binding of the longer acyl-tail length AHL molecules disrupts the transcriptional activation ability of CviR.
To determine if 4606-4237 inhibits violacein production specifically by interfering with CviR, 4606-4237 was tested for antagonism of CviR in the recombinant E. coli vioA-gfp assay. For these experiments, C6-HSL was held constant at 500 nM, while 4606-4237 was titrated from 1.3 nM to 100 μM (FIG. 3D). […] Importantly, no C. violaceum components other than CviR are present in the recombinant E. coli assay strain. Thus, any inhibition occurring would be due to a specific interaction between the antagonist molecule 4606-4237 and CviR rather than an interaction of 4606-4237 with some unknown component required for violacein production in C. violaceum.

CviR [3] = molecular target: T1, CviR; conditions: CviR expressed in E. coli, whole cell vs soluble extract, ligand 50 μM
Experimental: CviR Overexpression and Purification. CviR was overexpressed in BL21(DE3) pLysS by growing an overnight culture in LB supplemented with 100 μg/mL ampicillin and 10 μg/mL chloramphenicol. The culture was diluted 1:50 into fresh LB supplemented with 100 μg/mL ampicillin and 10 μg/mL chloramphenicol and grown shaking at 37° C. to an OD600 of 0.4. Various AHL or antagonist molecules were added to at 50 μM and incubated an additional 30 minutes at 30° C., after which expression was induced by the addition of 100 μM IPTG (isopropyl-β-D-thiogalactopyranoside) for 4 hours at 30° C. Cells were harvested by centrifugation and lysed in 20 mM imidazole pH 8.0, 100 mM NaCl, 0.5 mM EDTA and 5% glycerol via a Micro-fluidizer processor (MicroFluidics). Protein was purified via ion-exchange using a Hitrap Heparin HP column (GE Healthcare). Protein was eluted with a 100 mM to 1 M NaCl gradient. Fractions containing CviR were pooled and diluted in lysis buffer devoid of NaCl, and then further purified by cation exchange chromatography using a Hitrap SP HP column (GE Healthcare). CviR was eluted with a 100 mM to 1 M NaCl gradient.
The solubility characteristics of CviR were analyzed in the presence of the various molecules under study. […] As controls, the protein was also expressed in the absence of any AHL or antagonist. In each case, whole cell and soluble fractions of cell lysates were analyzed by SDS-PAGE to assess whether the CviR protein in question had been stabilized.

Structure (SMILES) | IC50 [1] [nM] | IC50 (CviR [2]) [nM] | CviR folding and solubility in presence of ligand (CviR [3]) | IC50 (CviR [2]; constant 500 nM C6-HSL, read-out: IC50 for inhibition of vioA-gfp expression) [nM]
O=C(CCCOc1ccc(Cl)cc1)NC1CCSC1=O (stereo not drawn) [CTL, Chloro-thiolactone] | 723 | 1100 | promoted CviR31532 folding and solubility | 
O=C(CCCOc1ccc(Cl)cc1)NC1CCOC1=O (stereo not drawn) [CL, chlorolactone] | 295 |  | promoted CviR31532 folding and solubility | 377
